From US6815439B2, “Substituted aza-oxindole derivatives” (SmithKline Beecham Corporation, priority 1999, dated 2004) come the findings set out here.

Holding throughout (type): biochemical
One test concerns the target T1, VEGFR-2 (Homo sapiens, UniProt P35968).
T1 construct: The kinase domain of the enzyme was purified to homogeneity from a baculovirus expression system; made in house
The experiment in a line: VEGFR-2 kinase assay. Conditions: kinase inhibition, Table 3; read-out: VEGFR2 (IC50). As for the experimental part:
The peptide substrate used in the VEGFR-2 assay was biotin-aminohexyl-[…]-NH2. The kinase domain of the enzyme was purified to homogeneity from a baculovirus expression system. The enzyme was preactivated on ice for 15 min in the presence of 100 μM ATP and 20 mM MgCl2, and stored at −80° C. until needed for assay. The activated enzyme was diluted to 0.4 nM into a 60 μl reaction containing 100 mM HEPES, pH 7.5, 5 μM ATP, 10 mM MgCl2, 5 μM peptide, 0.1 mM DTT, 0.05 mg/ml BSA, and an inhibitor at varying concentrations. The controls were reactions in the presence (negative controls) or absence (positive controls) of 50 mM EDTA. Reactions were incubated for 30 min at room temperature, and then quenched by the addition of EDTA to 60 mM in 210 μl. The quenched samples (190 μl) were transferred to a neutravidin-coated plate (Pierce) and incubated at room temperature for 40 min to allow biotinylated peptide to bind to the neutravidin. The unbound components of the reaction were removed by washing with a plate washer, then 200 μl HRP-PY20 anti-phosphotyrosine antibody conjugate was added to each well. After incubation for 40 min, the plate was washed to remove any unbound anitbody. A HRP substrate, K-blue (Neogen) was added and the reaction was quenched with Red Stop (Neogen) after 20 min. The absorbance of the wells was read at A650 in a plate reader. IC50 values were obtained by fitting raw data to A650=VMAX*(1−[I]/IC50+[I])))+b, where b is background.

In another test the target is CDK2 (Homo sapiens, UniProt P24941). Nature of the test: CDK2 substrate phosphorylation assay. Conditions: kinase inhibition, Table 3. As for the experimental part: Cyclin dependent protein kinase assays utilized the peptides Biotin-aminohexyl-[…] and Biotin-aminohexyl-[…]-NH2 as phosphoryl group acceptors. CDK2 was expressed utilizing a baculovirus expression system and was partially purified to comprise 20-80% of total protein, with no detectable competing reactions present. Typically, assays were performed by incubating enzyme (0.2-10 nM), with and without inhibitor, one of the two peptide substrates ([…]), [γ-^32P]ATP ([…]), and 10-20 mM Mg^2+ for periods of time generally within the range 10-120 min. Reactions were terminated with 0.2-2 volumes of either 20% acetic acid or 50-100 mM EDTA buffered to pH 7 (substrate consumption <20%). The buffer employed in enzyme assays was either 30 mM HEPES 7.4 containing 0.15 M NaCl and 5% DMSO, the buffer 50 mM MOPS 7.0 containing 0.15 M NaCl and 5% DMSO, or the buffer 100 mM HEPES pH 7.5 containing 0.1 mg/mL BSA and 5% DMSO. Inhibitors were diluted in 100% DMSO prior to addition into the assay. Detection of peptide phosphorylation was accomplished by scintillation counting following either collection of peptide onto phosphocellulose filters (for reactions stopped with acetic acid), collection of peptide in wells of 96 well plates coated with Streptavidin (Pierce) (reactions were stopped with EDTA), or addition of Avidin coated Scintillant impregnated beads (Scintillation Proximity Assays from Amersham; reactions were stopped with EDTA).

A further test concerns the target T2, c-fms (Homo sapiens, UniProt P07333).
T2 construct: The c-fms intracellular domain was expressed from a baculovirus expression system; GST (N); made in house
T2 sequence (P07333 539-972 limits assumed): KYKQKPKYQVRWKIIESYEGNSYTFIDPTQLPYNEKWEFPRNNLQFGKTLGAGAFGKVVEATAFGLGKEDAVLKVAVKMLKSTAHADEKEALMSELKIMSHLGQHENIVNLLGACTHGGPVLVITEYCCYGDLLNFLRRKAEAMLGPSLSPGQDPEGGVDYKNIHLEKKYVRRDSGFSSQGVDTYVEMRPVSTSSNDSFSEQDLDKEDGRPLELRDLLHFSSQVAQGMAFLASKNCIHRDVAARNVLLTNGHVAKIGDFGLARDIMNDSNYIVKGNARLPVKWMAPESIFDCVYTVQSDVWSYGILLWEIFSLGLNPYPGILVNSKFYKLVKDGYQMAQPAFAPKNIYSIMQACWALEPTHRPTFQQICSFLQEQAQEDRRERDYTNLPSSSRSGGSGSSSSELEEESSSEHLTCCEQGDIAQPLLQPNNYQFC
Nature of the test: c-fms protein kinase assay. Conditions: kinase inhibition, Table 3. As to the method: c-fms protein kinase assays utilized the peptide substrate, biotin-[…]-NH2 as the phosphoryl group acceptor. The c-fms intracellular domain was expressed from a baculovirus expression system, as an amino-terminal GST fusion protein, and purified to homogeneity using Glutathione agarose from Sigma Chemical Co. Maximum activation of the enzyme was achieved by preactivation at room temperature for 120 min in the presence of 100 μM ATP and 15 mM MgCl2, This enzyme stock was diluted to 150 nM prior to using in the assay. Typically assays were performed in white, opaque, 96-well plates in a 45 ul assay volume including 15 ul 6% DMSO, with or without compounds, 15 ul of the preactivated, diluted enzyme, and 15 ul of a substrate mixture. Reactions contained 50 mM HEPES, pH 7.5, 1.7 μM ATP, 15 mM MgCl2, 3 μM peptide, 2.5 mM DTT, 50 mM NaCl and 0.15 uCi/assay [□□^32P]ATP. The controls were reactions in the presence (negative controls) or absence (positive controls) of 50 mM EDTA. Reactions were allowed to proceed for 90 min at room temperature. The reaction products were quantified using Scintillation Proximity technolgy. The reactions were quenched by the addition of 200 ul of a solution containing 0.3 mg streptavidin SPA beads from Amersham, 50 mM EDTA, 0.1% TX-100, 50 uM ATP, in PBS, pH7.2 (phosphate buffered solution). Plates were sealed and counted in a Packard Topcount scintillation counter. IC50 values were obtained by fitting raw data to the equation y=Vmax*(1−(x/(k+x))).

Usually IC50 stands for the concentration needed to halve the response being measured.

T1 sequence (P35968 834-1162 limits assumed, species assumed): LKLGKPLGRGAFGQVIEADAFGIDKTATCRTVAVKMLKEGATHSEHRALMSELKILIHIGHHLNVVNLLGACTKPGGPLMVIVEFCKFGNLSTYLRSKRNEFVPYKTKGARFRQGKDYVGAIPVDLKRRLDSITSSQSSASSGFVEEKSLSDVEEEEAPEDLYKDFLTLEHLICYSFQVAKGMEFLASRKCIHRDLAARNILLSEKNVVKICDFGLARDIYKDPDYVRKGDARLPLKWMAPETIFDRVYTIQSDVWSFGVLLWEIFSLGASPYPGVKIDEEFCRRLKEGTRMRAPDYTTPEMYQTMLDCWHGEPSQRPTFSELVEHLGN

As for `NS(=O)(=O)c1ccc(NC=C2C(=O)Nc3ccncc32)cc1` [Example 1, 4-{[(2-Oxo-1,2-dihydro-3H-pyrrolo[3,2-c]pyridin-3-ylidene)methyl]amino}benzenesulfonamide], the IC50 was 1000 to 10000 nM on VEGFR-2 and 10 to 100 nM against CDK2.

At CDK2, `NS(=O)(=O)c1ccc(NC=C2C(=O)Nc3cnccc32)cc1` [Example 2, 4-{[(2-Oxo-1,2-dihydro-3H-pyrrolo[2,3-c]pyridin-3-ylidene)methyl]amino}benzenesulfonamide] had a half-inhibitory concentration (IC50) of 10 to 100 nM.

With `O=C1Nc2cccnc2C1=CNc1ccc2cn[nH]c2c1` [Example 3, 3-[(1H-Indazol-6-ylamino)methylidene]-1H-pyrrolo[3,2-b]pyridin-2-one], the IC50 at VEGFR-2 lay within 1000 to 10000 nM.

Turning to `O=C1Nc2cccnc2C1=CNc1ccc2ncccc2c1` [Example 4, 3-[(6-Quinolinylamino)methylidene]-1,3-dihydro-2H-pyrrolo[3,2-b]pyridin-2-one], the IC50 at VEGFR-2 was 1000 to 10000 nM.

`NS(=O)(=O)c1ccc(NC=C2C(=O)Nc3ncccc32)cc1` [Example 5, 4-{[(2-Oxo-1,2-dihydro-3H-pyrrolo[2,3-b]pyridin-3-ylidene)methyl]amino}benzenesulfonamide]: the IC50 fell in the range of 1000 to 10000 nM at VEGFR-2 and 100 to 1000 nM on CDK2.

For `O=C1Nc2ncccc2C1=CNc1ccc2cn[nH]c2c1` [Example 6, 3-[(1H-Indazol-6-ylamino)methylidene]-1H-pyrrolo[2,3-b]pyridin-2-one], the IC50 at VEGFR-2 lay within 100 to 1000 nM; on c-fms, 1000 to 10000 nM.

Turning to `O=C1Nc2ncccc2C1=CNc1ccc2ncccc2c1` [Example 7, 3-[(6-Quinolinylamino)methylidene]-1,3-dihydro-2H-pyrrolo[2,3-b]pyridin-2-one], on VEGFR-2, the IC50 fell in the range of 1000 to 10000 nM.

At CDK2, `NS(=O)(=O)c1ccc(NC=C2C(=O)Nc3ncc(-c4ccccc4)cc32)cc1` [Example 8, 4-{[(2-Oxo-5-phenyl-1,2-dihydro-3H-pyrrolo[2,3-b]pyridin-3-ylidene)methyl]amino}benzenesulfonamide] had an IC50 of 1000 to 10000 nM.

As to `O=C1Nc2ncc(-c3ccccc3)cc2C1=CNc1ccc2cn[nH]c2c1` [Example 9, 3-[(1H-Indazol-6-ylamino)methylidene]-5-phenyl-1H-pyrrolo[2,3-b]pyridin-2-one], the IC50 on c-fms is 1000 to 10000 nM.

For the compound `O=C1Nc2ncc(-c3ccccc3)cc2C1=CNc1ccc2ncccc2c1` [Example 10, 5-Phenyl-3-[(6-quinolinylamino)methylidene]-1,3-dihydro-2H-pyrrolo[2,3-b]pyridin-2-one], the IC50 on c-fms is 1000 to 10000 nM.

`NS(=O)(=O)c1ccc(NC=C2C(=O)Nc3ncc(-c4ccco4)cc32)cc1` [Example 11, 4-({[5-(2-Furyl)-2-oxo-1,2-dihydro-3H-pyrrolo[2,3-b]pyridin-3-ylidene]methyl}amino)benzenesulfonamide]: the values for the IC50 at VEGFR-2, against CDK2 and on c-fms were 1000 to 10000 nM, 10 to 100 nM and 100 to 1000 nM, respectively.

As to `O=C1Nc2ncc(-c3ccco3)cc2C1=CNc1ccc2cn[nH]c2c1` [Example 12, 5-(2-Furyl)-3-[(1H-indazol-6-ylamino)methylidene]-1H-pyrrolo[2,3-b]pyridin-2-one], the IC50 on VEGFR-2 was in the range of 100 to 1000 nM; against CDK2, 1000 to 10000 nM; against c-fms it was 1000 to 10000 nM.

With `O=C1Nc2ncc(-c3ccco3)cc2C1=CNc1ccc2ncccc2c1` [Example 13, 5-(2-Furyl)-3-[(6-quinolinylamino)methylidene]-1,3-dihydro-2H-pyrrolo[2,3-b]pyridin-2-one], the 50% inhibitory concentration (IC50) at VEGFR-2 and on c-fms was 1000 to 10000 nM throughout.

For `NS(=O)(=O)c1ccc(NC=C2C(=O)Nc3ncc(-c4ccsc4)cc32)cc1` [Example 14, 4-({[2-Oxo-5-(3-thienyl)-1,2-dihydro-3H-pyrrolo[2,3-b]pyridin-3-ylidene]methyl}amino)benzenesulfonamide], the IC50 on VEGFR-2, at CDK2 and against c-fms was 100 to 1000 nM in each case.

With `O=C1Nc2ncc(-c3ccsc3)cc2C1=CNc1ccc2cn[nH]c2c1` [Example 15, 3-[(1H-Indazol-6-ylamino)methylidene]-5-(3-thienyl)-1,3-dihydro-2H-pyrrolo[2,3-b]pyridin-2-one], the half-maximal inhibitory concentration (IC50) is 1000 to 10000 nM on VEGFR-2, 100 to 1000 nM at CDK2 and 1000 to 10000 nM against c-fms.

Regarding `O=C1Nc2ncc(-c3ccsc3)cc2C1=CNc1ccc2ncccc2c1` [Example 16, 3-[(6-Quinolinylamino)methylidene]-5-(3-thienyl)-1,3-dihydro-2H-pyrrolo[2,3-b]pyridin-2-one], the IC50 at VEGFR-2 fell in the range of 1000 to 10000 nM; on c-fms, 100 to 1000 nM.

On to `NS(=O)(=O)c1ccc(NC=C2C(=O)Nc3ncc(Br)cc32)cc1` [Example 17, 4-{[(5-Bromo-2-oxo-1,2-dihydro-3H-pyrrolo[2,3-b]pyridin-3-ylidene)methyl]amino}benzenesulfonamide], for which the values for the IC50 on VEGFR-2, against CDK2 and at c-fms were 100 to 1000 nM, 10 to 100 nM and 1000 to 10000 nM, respectively.

For the compound `O=C1Nc2ncc(Br)cc2C1=CNc1ccc2cn[nH]c2c1` [Example 18, 5-Bromo-3-[(1H-indazol-6-ylamino)methylidene]-1,3-dihydro-2H-pyrrolo[2,3-b]pyridin-2-one], the IC50 fell in the range of 100 to 1000 nM on VEGFR-2, 10 to 100 nM against CDK2 and 1000 to 10000 nM at c-fms.

For the compound `NS(=O)(=O)c1ccc(NC=C2C(=O)Nc3nc(Cl)ccc32)cc1` [Example 20, 4-{[(6-Chloro-2-oxo-1,2-dihydro-3H-pyrrolo[2,3-b]pyridin-3-ylidene)methyl]amino}benzenesulfonamide], the IC50 at VEGFR-2 and against CDK2 was 100 to 1000 nM each time.

On to `O=C1Nc2nc(Cl)ccc2C1=CNc1ccc2ncccc2c1` [Example 22, 6-Chloro-3-[(6-quinolinylamino)methylidene]-1,3-dihydro-2H-pyrrolo[2,3-b]pyridin-2-one], for which the IC50 at VEGFR-2 and against c-fms was 1000 to 10000 nM each time.

On to `CCOC(=O)c1cnc2c(c1)C(=CNc1ccc3ncccc3c1)C(=O)N2` [Example 25, Ethyl 2-oxo-3-[(6-quinolinylamino)methylidene]-2,3-dihydro-1H-pyrrolo[2,3-b]pyridine-5-carboxylate], for which the half-inhibitory concentration (IC50) on VEGFR-2 and at CDK2 was 100 to 1000 nM throughout.
